Experimental data as given in US5399565A, “Pyrazolidinone CCK and gastrin antagonists and pharmaceutical formulations therof” (priority 1993, dated 1995).

How the values were obtained:
[1] = biological target: T1, brain CCK receptor (Mus musculus, UniProt P56481); experiment: CCK receptor binding, mouse brain membranes (125I-CCK-8 sulfate); conditions: for IC50: mouse brain membranes, read-out: Brain IC50; for inhibition at 10 µM: read-out: Brain Percent Inhibition
T1 construct: from tissue; host or cells: forebrain membranes of male CF-1 mice
T1 sequence (P56481 1-453): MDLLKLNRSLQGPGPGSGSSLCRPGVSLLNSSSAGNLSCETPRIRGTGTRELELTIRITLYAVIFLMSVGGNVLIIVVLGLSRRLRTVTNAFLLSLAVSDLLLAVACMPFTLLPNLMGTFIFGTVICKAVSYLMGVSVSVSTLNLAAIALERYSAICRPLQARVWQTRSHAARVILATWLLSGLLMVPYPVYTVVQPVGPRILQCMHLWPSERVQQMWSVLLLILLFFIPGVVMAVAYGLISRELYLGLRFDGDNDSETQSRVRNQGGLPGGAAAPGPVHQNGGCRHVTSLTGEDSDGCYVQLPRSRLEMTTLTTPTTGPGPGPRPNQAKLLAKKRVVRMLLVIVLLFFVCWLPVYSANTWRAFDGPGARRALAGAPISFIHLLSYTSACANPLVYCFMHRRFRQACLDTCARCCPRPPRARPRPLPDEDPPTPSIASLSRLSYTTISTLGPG

[2] = biological target: T2, peripheral type CCK receptors in rat pancreas (Rattus norvegicus, UniProt P30551); experiment: Binding to peripheral type CCK receptors in rat pancreas (3H-L-364,718); conditions: for inhibition at 10 µM: read-out: Pancreas Percent Inhibition
T2 construct: Pancreas was obtained from male Sprague-Dawley rats; from tissue; host or cells: pancreas membranes of male Sprague-Dawley rats
T2 sequence (P30551 1-444): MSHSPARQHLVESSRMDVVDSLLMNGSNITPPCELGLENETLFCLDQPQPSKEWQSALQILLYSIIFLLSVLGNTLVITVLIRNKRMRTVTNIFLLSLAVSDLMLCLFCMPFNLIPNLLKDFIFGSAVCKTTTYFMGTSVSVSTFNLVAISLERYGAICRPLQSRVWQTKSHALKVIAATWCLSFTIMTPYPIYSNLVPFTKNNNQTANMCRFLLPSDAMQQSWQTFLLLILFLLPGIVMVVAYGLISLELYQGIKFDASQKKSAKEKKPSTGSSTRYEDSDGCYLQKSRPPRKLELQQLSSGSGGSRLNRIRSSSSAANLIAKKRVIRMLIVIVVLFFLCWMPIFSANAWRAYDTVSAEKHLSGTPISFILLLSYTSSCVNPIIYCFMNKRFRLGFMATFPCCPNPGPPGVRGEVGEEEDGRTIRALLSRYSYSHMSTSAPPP
Procedure, shortened: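 Washed pancreatic membranes from male Sprague-Dawley rats (150-200 g) incubated 1 h at room temperature with 0.4-0.6 nM ³H-L-364,718 in 50 mM Tris pH 7.4, 5 mM MgCl2, bacitracin, 5 mM DTT. Bound radioactivity counted after filtration; nonspecific binding defined with 100 nM L-364,718; IC50 determined.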

[3] = pKa by titration; conditions: for pKa: 2:1 dmf:h2o, titration pKa
[4] = biological target: T3, gastrin receptor (Cavia porcellus, UniProt H0VZC5); experiment: Gastrin binding to guinea pig stomach mucosal membranes (125I-gastrin I); conditions: guinea pig stomach mucosal membranes; read-out: Gastrin IC50
T3 construct: Guinea pig stomach fundus was obtained from male Hartley guinea pigs; from tissue; host or cells: stomach fundus mucosal membranes of male Hartley guinea pigs
T3 sequence (H0VZC5 1-426): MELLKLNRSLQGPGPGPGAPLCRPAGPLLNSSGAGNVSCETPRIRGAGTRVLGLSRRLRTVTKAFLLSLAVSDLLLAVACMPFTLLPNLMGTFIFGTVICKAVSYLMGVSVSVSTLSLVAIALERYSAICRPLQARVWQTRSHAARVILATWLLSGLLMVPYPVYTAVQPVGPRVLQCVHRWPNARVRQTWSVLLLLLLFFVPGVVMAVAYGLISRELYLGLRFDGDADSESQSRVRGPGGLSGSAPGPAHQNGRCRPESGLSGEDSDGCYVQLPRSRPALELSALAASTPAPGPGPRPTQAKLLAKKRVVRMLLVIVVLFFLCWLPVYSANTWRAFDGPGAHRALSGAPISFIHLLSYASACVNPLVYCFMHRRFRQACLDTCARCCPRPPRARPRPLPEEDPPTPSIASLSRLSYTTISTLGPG
Procedure: The method used for gastrin binding to guinea pig stomach mucosal membranes was similar to that described by Takeuchi, Speir and Johnson (Am. J. Physiol. 237(3): E284-E294, 1979). Guinea pig stomach fundus was obtained from male Hartley guinea pigs, 300-350 g, and the mucosa was scraped off with a glass slide. The mucosa was homogenized in 50 mM Tris buffer, pH 7.4, containing 1 mM phenylmethanesulfonyl fluoride using a Dounce glass homogenizer, and the suspension was centrifuged at 40,000 g for 10 min. The resulting pellet was resuspended and centrifuged once more, the final pellet was then suspended in 100 ml assay buffer per 1 guinea pig stomach to give a protein concentration of 200-300 μg/200 μl. The assay buffer consisted of 50 mM Tris buffer, pH 7.4, 5 mM MgCl2, 0.14 mg/ml bacitracin, and 1 μg/ml each of leupeptin, chymostatin, aprotinin and pepstatin. Reagent volumes for the assay were the same as those used for CCK binding to brain membranes. The radioactive ligand was 20 pM ^125 I-gastrin I, from DuPont NEN (NEX-176). The samples were incubated 3 hours at room temperature and filtered and counted as described for CCK binding to brain membranes. Compound samples were prepared and IC-50 values were determined as described for the CCK-brain receptor binding. Non-specific binding was determined using 100 nM gastrin I (human synthetic from Sigma Chemical Co.).

IC50 [1] | inhibition at 10 µM [2] | pKa ([3]; first or only value) | pKa ([3]; second value) | IC50 [4] | inhibition at 10 µM [1] | IC50 ([2]; rat pancreas) | titration pKa ([3]; 2:1 DMF:H2O, first or only value, listed as Diastereomer B) | SMILES
2.6 µM | 60% | 6.75 | – | – | – | – | – | O=C1NN(C(=O)c2cc3ccccc3[nH]2)[C@@H](c2ccccc2)[C@@H]1c1ccccc1 (relative stereo) [Example 14, 1-(Indole-2-carbonyl)-4,5-diphenyl-3-pyrazolidinone]
– | – | 5.8 | – | – | – | 0.16 µM | – | O=C1NN(C(=S)Nc2ccc3ccccc3c2)[C@@H](c2ccccc2)[C@@H]1c1ccccc1 (relative stereo) [Example 136, 1-[(2-Naphthyl)aminothiocarbonyl]-4,5-diphenyl-3-pyrazolidinone]
– | – | 8.7 | – | – | – | – | – | C[C@@H](OC(=O)N1NC(=O)[C@@H](c2ccccc2)[C@@H]1c1ccccc1)c1ccccc1 (single isomer, unassigned) [Example 139A]
– | – | – | – | – | – | – | 8.6 | C[C@@H](OC(=O)N1NC(=O)[C@@H](c2ccccc2)[C@@H]1c1ccccc1)c1ccccc1 (single isomer, unassigned) [Example 139B]
0.012 µM | 61% | – | – | 0.062 µM | – | – | – | O=C1NN(C(=O)Nc2ccc(Cl)c(C(F)(F)F)c2)C(c2ccccc2)C1c1ccccc1Cl (stereo not shown) [Example 131]
0.008 µM | 48% | – | – | 0.07 µM | – | – | – | CC(C)c1ccc(NC(=O)N2NC(=O)C(c3ccccc3Cl)C2c2ccccc2)cc1 (stereo not shown) [Example 132]
0.033 µM | 75% | – | – | 0.093 µM | – | – | – | O=C1NN(C(=O)Nc2ccc(Br)cc2)C(c2ccccc2)C1c1cccc2ccccc12 (stereo not shown) [Example 134]
0.14 µM | 18% | – | – | 1.7 µM | – | – | – | O=C1NN(C(=O)Nc2ccc(Br)cc2)C(c2cccnc2)C1c1ccccc1 (stereo not shown) [Example 135]

The next lines start with the compound.

SMILES | IC50 [1] | inhibition at 10 µM [2] | pKa ([3]; first or only value) | pKa ([3]; second value) | IC50 [4] | inhibition at 10 µM [1] | IC50 ([2]; rat pancreas) | titration pKa ([3]; 2:1 DMF:H2O, first or only value, listed as Diastereomer B)
CN(C)c1ccc(NC(=O)N2NC(=O)[C@@H](c3ccccc3)[C@@H]2c2ccccc2)cc1 (relative stereo) [Example 2, 1-[(4-N,N-Dimethylaminophenyl)aminocarbonyl]-4,5-diphenyl-3-pyrazolidinone] | 0.29 µM | 14% | 4 | 7.9 | – | – | – | –
O=C1NN(C(=O)Nc2ccc(OCc3ccccc3)cc2)[C@@H](c2ccccc2)[C@@H]1c1ccccc1 (relative stereo) [Example 3, 1-[(4-Benzyloxyphenyl)aminocarbonyl]-4,5-diphenyl-3-pyrazolidinone] | 0.054 µM | 34% | 7.7 | – | 1.1 µM | – | – | –
O=C1NN(C(=O)c2cccc(C(F)(F)F)c2)[C@@H](c2ccccc2)[C@@H]1c1ccccc1 (relative stereo) [Example 5] | – | 18% | 7.15 | – | – | 77% | – | –
O=C1NN(C(=O)Oc2ccc(Cl)cc2)[C@@H](c2ccccc2)[C@@H]1c1ccccc1 (relative stereo) [Example 6, 1-[(4-Chlorophenyl)oxycarbonyl]-4,5-diphenyl-3pyrazolidinone] | 4.4 µM | 15% | 7.8 | – | – | – | – | –
O=C1NN(C(=O)NCc2ccc(Cl)c(Cl)c2)[C@@H](c2ccccc2)[C@@H]1c1ccccc1 (relative stereo) [Example 7, 1-[(3,4-Dichlorobenzyl)aminocarbonyl]-4,5-diphenyl-3pyrazolidinone] | 1.1 µM | 81% | 8.4 | – | – | – | – | –
O=C1NN(c2nc3ccc(Cl)cc3s2)[C@@H](c2ccccc2)[C@@H]1c1ccccc1 (relative stereo) [Example 9, 1-[6-Chloro-2-benzothiazolyl]-4,5-diphenyl-3-pyrazolidinone] | 3.7 µM | 33% | 6.6 | – | – | – | – | –
Nc1ccc(NC(=O)N2NC(=O)[C@@H](c3ccccc3)[C@@H]2c2ccccc2)cc1 (relative stereo) [Example 10, 1-[(4-Aminophenyl)aminocarbonyl]-4,5-diphenyl-3-pyrazolidinone] | – | 4% | 4.5 | 8.1 | – | 57% | – | –
